In patent US8309586B2, “Glucokinase activators and pharmaceutical compositions containing the same as an active ingredient” (LG Life Sciences Ltd., priority 2007, dated 2012):

tested on: Glucokinase known as hexokinase IV (human GK isoform 1, pancreas form and human GK isoform 2, liver form); assay: Glucokinase enzymatic activity assay (G6PDH-coupled, NADH absorbance at 340 nm); type: biochemical; settings: 5 mM glucose, 1 mM ATP, 37 nM GK, 10 min at room temperature
Protocol: Glucokinase known as hexokinase IV (human GK isoform 1, pancreas form and human GK isoform 2, liver form) was cloned into an expression vector pET15 fx (Novagen Co.), transformed to E. coli BL21 (DE3) (Invitrogen Co.) strain, expressed, and purified using a nickel column. Then, the glucokinase obtained from dialysis was used in the following assay.
Glucokinase assay was performed by measuring absorbance according to the conventional manner. Briefly speaking, glucokinase converts the substrate glucose to glucose-6-phosphate under certain conditions, and glucose-6-phosphate dehydrogenase irreversibly converts glucose-6-phosphate to gluconate-6-phosphate. During this procedure, NADH is formed, and its absorbance is measured to calculate the enzymatic activity.
In the measurement of the enzymatic activity, each compound was diluted by two-fold from the maximum to the minimum concentrations, and 2 μl of each solution was added to 96 well UV plate (BD bioscience). 60 μl of the first mixture (final concentrations 25 mM Hepes, 25 mM KCl, 2 mM MgCl2, 1 mM DTT) was added, and thoroughly mixed. 38 μl of the enzyme mixture (final concentrations 1 mM ATP, 1 mM NAD, 5 mM glucose, 0.85U G6PDH, 37 nM GK) was added (final volume 100 μl), and the mixture was reacted for 10 min at room temperature. The absorbance of NADH was measured at 340 nm using a UV spectrometer (Molecular Device).
The enzyme activating abilities of the compounds according to the present invention are represented as AC1.5 (the compound concentration at which the enzymatic activity is increased by 1.5 times, nM), which is in the range of 0.001 uM to 30 uM or less, preferably 0.001 uM to 10 uM, more preferably 0.001 uM to 1 uM.

Point of comparison: CC(=O)N1CCN(CC[C@@H]2CSC(c3cc4cc(CS(C)(=O)=O)cc(NC5CCCC5)c4[nH]3)=N2)CC1 [Example 72, 1-(4-{2-[(R)-2-(7-cyclopentylamino-5-methanesulfonylmethyl-1H-indol-2-yl)-4,5-dihydro-thiazol-4-yl]-ethyl}-piperazin-1-yl)-ethanone], “AC1.5 (the compound concentration at which the enzymatic activity is increased by 1.5 times)” value 51 nM. Against it:
- COc1cc(NC2CCOCC2)c2[nH]c(C3=N[C@H](CC(=O)O)CS3)cc2c1 [Example 51, {(R)-2-[5-methoxy-7-(tetrahydro-pyran-4-ylamino)-1H-indol-2-yl]-4,5-dihydro-thiazol-4-yl}-acetic acid] — 3.3-fold higher, 167 nM
- COC(=O)C[C@@H]1CSC(c2cc3cc(C)cc(NC4CCCC4)c3[nH]2)=N1 [Example 60, [(R)-2-(7-cyclopentylamino-5-methyl-1H-indol-2-yl)-4,5-dihydro-thiazol-4-yl]acetic acid methyl ester] — 1.8-fold lower, 29 nM
- COc1cc(NC2CCCC2)c2[nH]c(C3=N[C@H](CCC(=O)O)CS3)cc2c1 [Example 165, 3-[(R)-2-(7-cyclopentylamino-5-methoxy-1H-indol-2-yl)-4,5-dihydro-thiazol-4-yl]-propionic acid] — 4.2-fold lower, 12 nM
- COc1cc(NC2CCOCC2)c2[nH]c(C3=N[C@H](CCN4CCN(C(=O)CO)CC4)CS3)cc2c1 [Example 147, 2-hydroxy-1-[4-(2-{(R)-2-[5-methoxy-7-(tetrahydro-pyran-4-ylamino)-1H-indol-2-yl]-4,5-dihydro-thiazol-4-yl}-ethyl)-piperazin-1-yl]ethanone] — within 1.5-fold, 52 nM
- O=C(O)CC[C@@H]1CSC(c2cc3cc(Cl)cc(NC4CCOCC4)c3[nH]2)=N1 [Example 151, 3-{(R)-2-[5-chloro-7-(tetrahydro-pyran-4-ylamino)-1H-indol-2-yl]-4,5-dihydro-thiazol-4-yl}-propionic acid] — 3.6-fold lower, 14 nM
- COC(=O)C[C@@H]1CSC(c2cc3cc(Oc4cccnc4)cc(NC4CCCC4)c3[nH]2)=N1 [Example 56, {(R)-2-[7-cyclopentylamino-5-(pyridin-3-yloxy)-1H-indol-2-yl]-4,5-dihydro-thiazol-4-yl}-acetic acid methyl ester] — 3-fold lower, 17 nM
- OCC[C@@H]1CSC(c2cc3cccc(NC4CCOCC4)c3[nH]2)=N1 [Example 46, 2-{(R)-2-[7-(tetrahydro-pyran-4-ylamino)-1H-indol-2-yl]-4,5-dihydro-thiazol-4-yl}-ethanol] — 1.9-fold higher, 96 nM
- CN1CCN(C(=O)C[C@@H]2CSC(c3cc4cc(Cl)cc(NC5CCCC5)c4[nH]3)=N2)CC1 [Example 78, 2-[(R)-2-(5-chloro-7-cyclopentylamino-1H-indol-2-yl)-4,5-dihydro-thiazol-4-yl]-1-(4-methyl-piperazin-1-yl)-ethanone] — 2-fold lower, 25 nM
- CCOC(=O)C[C@@H]1CSC(c2cc3cc(Cl)cc(NC4CCCC4)c3[nH]2)=N1 [Example 28, [(R)-2-(5-chloro-7-cyclopentylamino-1H-indol-2-yl)-4,5-dihydro-thiazol-4-yl]acetic acid ethyl ester] — 6.4-fold lower, 8 nM
- OC[C@@H]1CSC(c2cc3cc(Cl)cc(NC4CCSCC4)c3[nH]2)=N1 [Example 9, {(R)-2-[5-chloro-7-(tetrahydro-thiopyran-4-ylamino)-1H-indol-2-yl]-4,5-dihydro-thiazol-4-yl}-methanol] — 2.1-fold lower, 24 nM
- CC(=O)N1CCN(CC[C@@H]2CSC(c3cc4cccc(Oc5ccccc5)c4[nH]3)=N2)CC1 [Example 175, 1-(4-{2-[(R)-2-(7-phenoxy-1H-indol-2-yl)-4,5-dihydro-thiazol-4-yl]-ethyl}-piperazin-1-yl)-ethanone] — within 1.5-fold, 71 nM
- OCCC[C@@H]1CSC(c2cc3cc(Cl)cc(NC4CCOCC4)c3[nH]2)=N1 [Example 152, 3-{(R)-2-[5-chloro-7-(tetrahydro-pyran-4-ylamino)-1H-indol-2-yl]-4,5-dihydro-thiazol-4-yl}-propan-1-ol] — 3.6-fold lower, 14 nM
- O=C(O)CC[C@@H]1CSC(c2cc3cc(F)cc(NC4CCCC4)c3[nH]2)=N1 [Example 161, 3-[(R)-2-(7-cyclopentylamino-5-fluoro-1H-indol-2-yl)-4,5-dihydro-thiazol-4-yl]-propionic acid] — 5.1-fold lower, 10 nM
- CS(=O)(=O)Cc1cc(NC2CCCC2)c2[nH]c(C3=N[C@H](CC(=O)O)CS3)cc2c1 [Example 69, [(R)-2-(7-cyclopentylamino-5-methanesulfonylmethyl-1H-indol-2-yl)-4,5-dihydro-thiazol-4-yl]-acetic acid] — within 1.5-fold, 64 nM
- O=C(CO)N1CCN(CC[C@@H]2CSC(c3cc4cc(F)cc(NC5CCOCC5)c4[nH]3)=N2)CC1 [Example 140, 1-[4-(2-{(R)-2-[5-fluoro-7-(tetrahydro-pyran-4-ylamino)-1H-indol-2-yl]-4,5-dihydro-thiazol-4-yl}-ethyl)-piperazin-1-yl]-2-hydroxy-ethanone] — within 1.5-fold, 52 nM
- O=C(O)CC[C@@H]1CSC(c2cc3cc(Cl)cc(NC4CCCC4)c3[nH]2)=N1 [Example 149, 3-[(R)-2-(5-chloro-7-cyclopentylamino-1H-indol-2-yl)-4,5-dihydro-thiazol-4-yl]-propionic acid] — 4.2-fold lower, 12 nM
- NCC[C@@H]1CSC(c2cc3cc(F)cc(NC4CCCC4)c3[nH]2)=N1 [Example 124, {2-[(R)-4-(2-amino-ethyl)-4,5-dihydro-thiazol-2-yl]-5-fluoro-1H-indol-7-yl}-cyclopentyl-amine] — 2.1-fold lower, 24 nM
- COC(=O)C[C@@H]1CSC(c2cc3cc(OC)cc(NC4CCCC4)c3[nH]2)=N1 [Example 47, [(R)-2-(7-cyclopentylamino-5-methoxy-1H-indol-2-yl)-4,5-dihydro-thiazol-4-yl]-acetic acid methyl ester] — 1.9-fold lower, 27 nM
- CN(C)C(=O)C[C@@H]1CSC(c2cc3cc(Cl)cc(NC4CCCC4)c3[nH]2)=N1 [Example 77, 2-[(R)-2-(5-chloro-7-cyclopentylamino-1H-indol-2-yl)-4,5-dihydro-thiazol-4-yl]-N,N-dimethyl-acetamide] — 1.9-fold lower, 27 nM
- CCOC(=O)CC[C@@H]1CSC(c2cc3cc(F)cc(NC4CCCC4)c3[nH]2)=N1 [Example 160, 3-[(R)-2-(7-cyclopentylamino-5-fluoro-1H-indol-2-yl)-4,5-dihydro-thiazol-4-yl]-propionic acid ethyl ester] — 4.2-fold lower, 12 nM
- Fc1cc(NC2CCCC2)c2[nH]c(C3=N[C@H](CCN4CCCC4)CS3)cc2c1 [Example 128, cyclopentyl-{5-fluoro-2-[(R)-4-(2-pyrrolidin-1-yl-ethyl)-4,5-dihydro-thiazol-2-yl]-1H-indol-7-yl}-amine] — 3.2-fold lower, 16 nM
- O=S1(=O)CCN(CC[C@@H]2CSC(c3cc4cc(F)cc(NC5CCCC5)c4[nH]3)=N2)CC1 [Example 129, cyclopentyl-(2-{(R)-4-[2-(1,1-dioxo-thiomorpholin-4-yl)-ethyl]-4,5-dihydro-thiazol-2-yl}-5-fluoro-1H-indol-7-yl)-amine] — within 1.5-fold, 67 nM
- CCOC(=O)CC[C@@H]1CSC(c2cc3cc(C)cc(NC4CCCC4)c3[nH]2)=N1 [Example 157, 3-[(R)-2-(7-cyclopentylamino-5-methyl-1H-indol-2-yl)-4,5-dihydro-thiazol-4-yl]-propionic acid ethyl ester] — 2.1-fold lower, 24 nM
- COc1cc(NC2CCCC2)c2[nH]c(C3=N[C@H](CC(=O)N4CCOCC4)CS3)cc2c1 [Example 88, 2-[(R)-2-(7-cyclopentylamino-5-methoxy-1H-indol-2-yl)-4,5-dihydro-thiazol-4-yl]-1-morpholin-4-yl-ethanone] — 2.7-fold lower, 19 nM
- O=S1(=O)CCN(CC[C@@H]2CSC(c3cc4cc(Cl)cc(NC5CCCC5)c4[nH]3)=N2)CC1 [Example 105, (5-chloro-2-{(R)-4-[2-(1,1-dioxo-thiomorpholin-4-yl)-ethyl]-4,5-dihydro-thiazol-2-yl}-1H-indol-7-yl)-cyclopentyl-amine] — 8.5-fold lower, 6 nM
- OCC[C@@H]1CSC(c2cc3cc(F)cc(NC4CCOCC4)c3[nH]2)=N1 [Example 41, 2-{(R)-2-[5-fluoro-7-(tetrahydro-pyran-4-ylamino)-1H-indol-2-yl]-4,5-dihydro-thiazol-4-yl}-ethanol] — 3-fold lower, 17 nM
